Results as given in US9561201B2, “Therapeutic compounds” (Fibrotech Therapeutics Pty Ltd, priority 2006, dated 2017).
Entries after “also recorded” stand apart in the source; their conditions may differ.

Assays:
[1] = test system: STZ diabetic (mRen-2)27 rats; test: Diabetic (mRen-2)27 rats treated with FT011; assay type: in vivo; conditions: for GFR: 16 weeks
Method: Forty six-week old female, heterozygous (mRen-2)27 rats (St. Vincent's Hospital Animal House, Melbourne, Australia) were assigned to receive either 55 mg/kg of STZ (Sigma, St. Louis, USA) diluted in 0.1 M citrate buffer, pH 4.5 or citrate buffer alone (non-diabetic) by tail vein injection following an overnight fast. […] Treatment commenced within 24 hours of STZ or citrate buffer injection.
Rats were individually housed in metabolic cages at 4, 8 12 and 16 weeks, habituated for 2 to 3 hours, and urine collected over 24 hours. […] After 24 hours in metabolic cages, an aliquot of urine (5 mL) was collected from the 24-hour urine sample and stored at −70° C. for subsequent analysis of albumin by radio-immunoassay, as previously performed [36]. Prior to sacrifice, the glomerular filtration rate (GFR) was determined by injecting a single shot of 99Tc-DTPA into the tail vein and sampling the blood after 43 minutes, as previously described [37].
Rats were anaesthetised (Nembutal 60 mg/kg body wt i.p. Boehringer-Ingelheim, Australia). […] Kidneys were excised, decapsulated, sliced transversely, half of the kidney snap frozen for tissue RNA assay and other half immersed fix with formalin and paraffin-embedded for subsequent light microscopic evaluation.
Histopathological changes in kidney and heart were assessed in a masked protocol.
In 4 μm kidney sections stained with PAS, 150 to 200 glomeruli from rats were examined in a masked protocol. […] A glomerulosclerotic index (GSI) was then calculated using the Formula (4):
To assess the tubulointerstitial fibrosis in kidney sections were stained with modified Masson's trichrome. Briefly, 5 random non-overlapping fields from 10 rats per group were captured and digitised using a BX50 microscope attached to a Fujix HC5000 digital camera. Digital images were then loaded onto a Pentium III IBM computer as described as above. An area of red in heart and blue in kidney on picrosirius red and trichrome-stained section, respectively, were selected for its color range and the proportional area of tissue with this range of color was then quantified. Calculation of the proportional area stained red and blue (matrix) was then determined using image analysis (AIS, Analytical imaging Station Version 6.0, Ontario, Canada) [37, 39].

[2] = test system: Neonatal rat cardiac fibroblasts (NCFs); test: NCF TGF-β collagen synthesis, 3H-proline incorporation (Example 6); assay type: cell-based
Method: Neonatal SD rat cardiac myocytes (NCMs) and fibroblasts (NCFs) were isolated from one-day-old pups with enzymatic digestion as described in detail previously. NCFs were seeded and maintained in high-glucose (25 mmol/L) Dulbecco's modified Eagle's medium (DMEM) (Invitrogen Mount Waverley, Vic, Australia) in the presence of 1% antibiotic/antimycotic (AB/AM) and 10% fetal bovine serum (FBS) (JRH biosciences, Kansas, USA). NCFs were used at passage 2 [31]. Purified NCMs were seeded (1000 cells/mm^2) in 6-well plates and then maintained in serum-free DMEM (Invitrogen, NY, USA) supplemented with insulin and transferrin as described previously (4). Bromodeoxyuridine was included for the first 3 days. 50 mmol/L KCl was added to the medium to prevent spontaneous contraction characteristic of the plated NCMs.
NCFs collagen synthesis assays were performed as described previously. Briefly, NCFs plated at a density of 50,000 cells/well in 12-well plate and incubated overnight. NCFs were then serum starved for 24 hours in high-glucose DMEM. […]
For collagen synthesis, 1 μCi of [^3H]-Proline was added to each well and incubated for further 48 hours before harvest. Cells were harvested by precipitation with 10% TCA on ice for 30 min, before solubilisation with 0.75 mL of 1 mol/L NaOH overnight at 4° C. The samples were then neutralized with 1 mol/L HCl and ^3H level were counted with 10 ml scintillation fluid on a beta-counter to determine [^3H]-proline incorporation.

[3] = test system: SD rats post myocardial infarction (LAD ligation); test: Myocardial infarct rats treated with FT011; assay type: in vivo
Method: Twenty rats underwent ligation of left anterior descending coronary artery (LAD) to induce anterior myocardial infarction (MI). Briefly, surgery performed under aseptic conditions on a heated table (37° C.) to maintain body warmth during the course of the procedure. The chest swabbed with chlorhexidine in 70% ethanol to disinfect the area. An incision made into the skin to the left of the sternum and the underlying muscle layers blunt dissected. A thoracotomy performed through the fourth to fifth intercostal space and the ribs held open using retractors to enable access to the heart. The pericardial sac surrounding the heart torn open and a 6-0 prolene suture used to ligate the LAD immediately. Visible blanching and hypokinesis of the anterior wall of the left ventricle and swelling of the left atrium are indicative of successful ligation. The control groups (sham+vehicle, sham+FT011) underwent a sham operation consisting of the same procedure except that the suture passed through the myocardium beneath the LAD without ligation.
Echocardiography was performed on all animals 2 days post surgery and randomised to sham and MI groups. Animals were re-randomised at day 7 post surgery (10 animal each) to receive: vehicle or FT011 (100 mg/kg bid gavage). Every week, systolic blood pressure (SBP) was determined in preheated conscious rats via tail-cuff plethysmography using a non-invasive blood pressure (NIBP) controller and Powerlab (AD instruments, NSW, Australia). Cardiac function was assessed by echocardiography and cardiac catheterization prior to sacrificing at day 35 post surgery for all animals.
Echocardiography, including Doppler examination, was performed using a Vivid 7 Dimension (GE Vingmed, Horten, Norway) echocardiograph with a 10 MHz phased array probe. Electrocardiographic data were acquired simultaneously. End-diastole was defined as the peak of the R wave, and end-systole was defined as the end of the T wave.
Animals were anaesthetized with pentobarbitone sodium 60 mg/kg i.p. injection. Animals underwent echocardiographic interrogation in the left recumbent position. M-mode echocardiography was performed using a parasternal short axis view at the level of the papillary muscles. Left ventricular posterior (LVPW) and anterior wall thickness (LVAW) were obtained during diastole (d) and systole (s), as were the left ventricular internal diameter at end-diastole (LVIDd) and end-systole (LVIDs). From the para-sternal short axis view, the end diastolic and end systolic cross sectional blood pool areas were measured. Fractional area change (FAC) was then calculated according to the formulae: FAC=[(end-diastolic area-end-systolic area)/end-diastolic area]*100.
The apical 4-chamber view was used to assess early and late transmitral peak diastolic flow velocity (E and A waves), using pulsed wave Doppler with a sample volume of 2 mm placed at the tips of the mitral valve leaflets. All Doppler spectra were recorded for 10 cardiac cycles at a sweep speed of 200 mm/s. All parameters were assessed using an average of three beats, and calculations were made in accordance with the American Society of Echocardiography guidelines. All data were acquired and analyzed by a single blinded observer using EchoPAC (GE Vingmed) offline processing.
Post echocardiography, animals were placed on a warming pad (37° C.), intubated using a 14 gauge catheter, and ventilated using positive pressure with a tidal volume of […] at 70 breaths per minute using room air. Animals were secured in a recumbent position and the right jugular vein was cannulated with 0.9% NaCl infused at 100 μL per hour. […] The right internal carotid was then identified and ligated cranially. A 2F miniaturized combined conductance catheter-micromanometer was inserted into the carotid artery to obtain aortic blood pressure, then advanced into the left ventricle until stable pressure volume (PV) loops were obtained.

rat mesangial cell line = test: Effect on mesangial cell appearance (visual monitoring during proline assay); assay type: cell-based; conditions: @ 100 μM
[4] = diabetic rats, 100 mg/kg bid gavage
[5] = MI rats, 100 mg/kg bid gavage from day 7, day 35 post surgery
[6] = MI rats, 100 mg/kg bid gavage, echocardiography
[7] = MI rats, 100 mg/kg bid gavage, listed as FT011, 100 mg/kg

C#CCOc1ccc(/C=C/C(=O)Nc2ccccc2C(=O)O)cc1OC [Analogue 11]
GFR ([1]; diabetic rats + FT011 100 mg/kg bid gavage): 5.90 ± 0.20 mL/min
extent of glomerulosclerosis (PAS-stained sections) [1, 4]: reduction
rise in albuminuria [1, 4]: significantly attenuated
tubular (tubulointerstitial) fibrosis (trichrome-stained sections) [1, 4]: reduction
GFR ([1]; non-diabetic control rats + FT011 100 mg/kg bid gavage): 3.63 ± 0.08 mL/min
NCF TGF-β Collagen Synthesis ([2]; @ 30 μM): 32% @ 30 μM
NCF TGF-β Collagen Synthesis ([2]; @ 100 μM): 87% @ 100 μM
Myocardial infarct size, treated versus untreated MI groups ([3]; 100 mg/kg bid gavage, P=0.36): similar
LVED ([3]; MI rats, 100 mg/kg bid gavage): 0.53 ± 0.04 mL
LVES ([3]; MI rats, 100 mg/kg bid gavage): 0.15 ± 0.02 mL
LV/BW [3, 5]: 0.22 ± 0.004
RV/BW [3, 5]: 0.048 ± 0.002
adverse LV remodelling on echocardiography (LVIDd, LVIDs, FAC, E:A ratio, deceleration time) ([3]; MI rats, 100 mg/kg bid gavage, 5 weeks post MI): significantly attenuated
Deceleration time [3, 6]: 38.64 ± 1.2 ms
E:A ratio [3, 6]: 2.00 ± 0.26
FAC % [3, 6]: 42.69 ± 2.3 %
LVIDd [3, 6]: 0.92 ± 0.03 cm
LVIDs [3, 6]: 0.70 ± 0.03 cm
collagen subtype I and III immunostaining in non-infarct zone [3, 7]: reduction in immunostaining; also recorded: attenuated
infiltration of ED-1 positive macrophages in non-infarct zone [3, 7]: reduction in macrophage number; also recorded: attenuated
interstitial fibrosis in non-infarct zone (Masson's trichrome) [3, 7]: marked reduction; also recorded: attenuated
Effect on mesangial cell appearance (rat mesangial cell line): stress @
